The record followed here is patent US9567302B2, “Carbamate compounds and of making and using same” (Abide Therapeutics, Inc., priority 2012, dated 2017).

What all share (format): biochemical
What all share (set-up): from tissue; host or cells: mouse brain membrane fraction
Holding throughout (conditions): 30 min preincubation at 37° C.

The target in one assay is T1, MAGL (Mus musculus, UniProt O35678).
T1 sequence (O35678 1-303): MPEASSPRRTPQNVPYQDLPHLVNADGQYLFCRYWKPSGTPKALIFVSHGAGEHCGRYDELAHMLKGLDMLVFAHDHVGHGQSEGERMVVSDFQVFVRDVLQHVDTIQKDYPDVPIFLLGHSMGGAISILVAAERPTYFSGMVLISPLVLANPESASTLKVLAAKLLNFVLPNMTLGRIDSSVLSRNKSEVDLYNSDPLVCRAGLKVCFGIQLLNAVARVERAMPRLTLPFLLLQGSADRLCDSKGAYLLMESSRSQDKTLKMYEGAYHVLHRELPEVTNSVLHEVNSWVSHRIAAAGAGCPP
The assay is described as follows: In vitro competitive activity-based protein profiling (FP-Rh), mouse MAGL. Here is the method:
(§1) In Vitro Competitive Activity-Based Protein Profiling.
(§2) Proteomes (mouse brain membrane fraction or cell lysates) (50 μL, 1.0 mg/ml total protein concentration) were preincubated with varying concentrations of inhibitors at 37° C. After 30 min, FP-Rh (1.0 μL, 50 μM in DMSO) was added and the mixture was incubated for another 30 min at 37° C. Reactions were quenched with SDS loading buffer (50 μL—4×) and run on SDS-PAGE.

The next assay addresses T2, FAAH (Mus musculus, UniProt O08914).
T2 sequence (O08914 1-579): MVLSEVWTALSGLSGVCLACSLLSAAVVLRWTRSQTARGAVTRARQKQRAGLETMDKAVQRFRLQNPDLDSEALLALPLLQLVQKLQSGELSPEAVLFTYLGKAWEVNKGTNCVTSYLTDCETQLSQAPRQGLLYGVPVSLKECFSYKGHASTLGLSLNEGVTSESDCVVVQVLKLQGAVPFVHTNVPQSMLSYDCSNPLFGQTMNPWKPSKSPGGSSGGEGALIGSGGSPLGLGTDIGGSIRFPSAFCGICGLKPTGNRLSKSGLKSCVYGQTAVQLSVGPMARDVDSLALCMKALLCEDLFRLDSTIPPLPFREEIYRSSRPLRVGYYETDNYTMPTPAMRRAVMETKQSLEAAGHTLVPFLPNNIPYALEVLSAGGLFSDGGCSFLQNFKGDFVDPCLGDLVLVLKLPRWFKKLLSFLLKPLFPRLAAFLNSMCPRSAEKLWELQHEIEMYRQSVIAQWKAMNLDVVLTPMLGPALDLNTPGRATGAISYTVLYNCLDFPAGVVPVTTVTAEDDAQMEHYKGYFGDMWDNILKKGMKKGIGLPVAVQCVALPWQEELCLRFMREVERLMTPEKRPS
Briefly: In vitro competitive activity-based protein profiling (FP-Rh), mouse FAAH. Here is the method:
as §1, §2

In the next assay the target is T3, ABHD6 (Mus musculus, UniProt Q8R2Y0).
T3 sequence (Q8R2Y0 1-336): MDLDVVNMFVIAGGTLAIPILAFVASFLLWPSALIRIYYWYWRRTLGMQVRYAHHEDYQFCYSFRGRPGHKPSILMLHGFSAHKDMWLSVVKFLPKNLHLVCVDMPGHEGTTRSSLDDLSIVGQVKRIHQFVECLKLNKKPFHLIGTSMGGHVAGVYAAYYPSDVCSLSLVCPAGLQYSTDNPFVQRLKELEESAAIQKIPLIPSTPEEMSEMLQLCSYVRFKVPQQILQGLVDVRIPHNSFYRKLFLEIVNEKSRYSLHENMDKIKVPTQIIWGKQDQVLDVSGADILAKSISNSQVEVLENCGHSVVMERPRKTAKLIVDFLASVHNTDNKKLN
Briefly: In vitro competitive activity-based protein profiling (FP-Rh), mouse ABHD6. The method, then:
as §1, §2

A word on the IC50: it is the concentration that gives 50% inhibition. Read a low IC50 as inhibition by little substance. Take `Cc1nn(-c2ccccc2)cc1CN1CCN(C(=O)ON2C(=O)CCC2=O)CC1` [Example 138, 2,5-Dioxopyrrolidin-1-yl 4-((3-methyl-1-phenyl-1H-pyrazol-4-yl)methyl)piperazine-1-carboxylate]: the IC50 at MAGL (Table 2, mouse proteome) lay within 1000 to 10000 nM; at FAAH (Table 2, mouse proteome), 1000 to 10000 nM; on ABHD6 (Table 2, mouse proteome) it was 100 to 1000 nM.
As to `O=C(C1CCCCN1C(=O)ON1C(=O)CCC1=O)N1CCOCC1` (stereo not drawn) [Example 16, 2,5-Dioxopyrrolidin-1-yl 2-(morpholine-4-carbonyl)piperidine-1-carboxylate], the half-inhibitory concentration (IC50) is > 10000 nM at MAGL (Table 1, mouse proteome); > 10000 nM on FAAH (Table 1, mouse proteome); > 10000 nM at ABHD6 (Table 1, mouse proteome).
As for `CCN(Cc1ccccc1)C(=O)ON1C(=O)CCC1=O` [Example 9, 2,5-Dioxopyrrolidin-1-yl N-benzyl-N-ethylcarbamate], the IC50 was > 10000 nM at MAGL (Table 1, mouse proteome); > 10000 nM at FAAH (Table 1, mouse proteome); > 10000 nM on ABHD6 (Table 1, mouse proteome).
Turning to `CN(Cc1cccc(-c2cccnc2)c1)C(=O)ON1C(=O)CCC1=O` [Example 13, 2,5-Dioxopyrrolidin-1-yl N-methyl-N-{[3-(pyridin-3-yl)phenyl]methyl}carbamate], the half-maximal inhibitory concentration (IC50) at MAGL (Table 1, mouse proteome) was > 10000 nM; on FAAH (Table 1, mouse proteome) it was > 10000 nM; at ABHD6 (Table 1, mouse proteome), > 10000 nM.
Regarding `O=C(ON1C(=O)CCC1=O)N1CCN(Cc2cccc(F)c2N2CCOCC2)CC1` [Example 93, 2,5-dioxopyrrolidin-1-yl 4-{[3-fluoro-2-(morpholin-4-yl)phenyl]methyl}piperazine-1-carboxylate], the concentration for half-maximal inhibition (IC50) at MAGL (Table 2, mouse proteome) was 100 to 1000 nM; on FAAH (Table 2, mouse proteome) it was > 10000 nM; on ABHD6 (Table 2, mouse proteome) it was > 10000 nM.
Turning to `O=C(ON1C(=O)CNC1=O)N1CCCCC1` [Example 61, 2,5-Dioxoimidazolidin-1-yl piperidine-1-carboxylate], the 50% inhibitory concentration (IC50) at MAGL (Table 1, mouse proteome) is > 10000 nM; at FAAH (Table 1, mouse proteome), > 10000 nM; at ABHD6 (Table 1, mouse proteome), > 10000 nM.
With `COc1ccc(N2CCN(C(=O)ON3C(=O)C4CCCCC4C3=O)CC2)cc1` (stereo not drawn) [Example 53, 1,3-Dioxohexahydro-1H-isoindol-2(3H)-yl 4-(4-methoxyphenyl)piperazine-1-carboxylate], the IC50 at MAGL (Table 1, mouse proteome) is > 10000 nM; at FAAH (Table 1, mouse proteome), > 10000 nM; at ABHD6 (Table 1, mouse proteome), < 100 nM.
As for `CN(C)C(=O)ON1C(=O)CC(c2ccccc2)C1=O` (stereo not drawn) [Example 59, 2,5-Dioxo-3-phenylpyrrolidin-1-yl dimethylcarbamate], the half-maximal inhibitory concentration (IC50) at MAGL (Table 1, mouse proteome) was > 10000 nM; at FAAH (Table 1, mouse proteome) it was > 10000 nM; at ABHD6 (Table 1, mouse proteome), > 10000 nM.
`COc1ccc(N2CCN(C(=O)ON3C(=O)CC(c4ccccc4)C3=O)CC2)cc1` (stereo not drawn) [Example 54, 2,5-Dioxo-3-phenylpyrrolidin-1-yl 4-(4-methoxyphenyl)piperazine-1-carboxylate]: the IC50 was 1000 to 10000 nM on MAGL (Table 1, mouse proteome); 1000 to 10000 nM on FAAH (Table 1, mouse proteome); < 100 nM on ABHD6 (Table 1, mouse proteome).
With `Cc1cc(Cl)ccc1C(c1ccc(Cl)cc1C)N1CCN(C(=O)ON2C(=O)CCC2=O)CC1` [Example 153, 2,5-Dioxopyrrolidin-1-yl 4-(bis(4-chloro-2-methylphenyl)methyl)piperazine-1-carboxylate], the IC50 at MAGL (Table 2, mouse proteome) is 100 to 1000 nM; on FAAH (Table 2, mouse proteome), > 10000 nM; on ABHD6 (Table 2, mouse proteome) it was 1000 to 10000 nM.
Take `O=C(NCCc1ccc(Oc2ccccc2)cc1)ON1C(=O)CCC1=O` [Example 6, 2,5-Dioxopyrrolidin-1-yl N-[2-(4-phenoxyphenyl)ethyl]carbamate]: the IC50 at MAGL (Table 1, mouse proteome) was > 10000 nM; on FAAH (Table 1, mouse proteome) it was 100 to 1000 nM; on ABHD6 (Table 1, mouse proteome) it was > 10000 nM.
For the molecule `Cc1cc(N2CCCC2)ccc1CN1CCN(C(=O)ON2C(=O)CCC2=O)CC1` [Example 68, 2,5-Dioxopyrrolidin-1-yl 4-(2-methyl-4-(pyrrolidin-1-yl)benzyl)piperazine-1-carboxylate], the IC50 on MAGL (Table 2, mouse proteome) was 100 to 1000 nM; at FAAH (Table 2, mouse proteome), 1000 to 10000 nM; at ABHD6 (Table 2, mouse proteome) it was 100 to 1000 nM.
Regarding `O=C(ON1C(=O)CNC1=O)N1CCC(CCc2ccc(Cl)cc2)CC1` [Example 48, 2,5-Dioxoimidazolidin-1-yl 4-(4-chlorophenethyl)piperidine-1-carboxylate], the IC50 on MAGL (Table 1, mouse proteome) was < 100 nM; on FAAH (Table 1, mouse proteome), < 100 nM; on ABHD6 (Table 1, mouse proteome), < 100 nM.
For `COc1cc(N2CCOCC2)ccc1CN1CCN(C(=O)ON2C(=O)CCC2=O)CC1` [Example 67, 2,5-Dioxopyrrolidin-1-yl 4-(2-methoxy-4-morpholinobenzyl)piperazine-1-carboxylate], the IC50 on MAGL (Table 2, mouse proteome) lay within 1000 to 10000 nM; at FAAH (Table 2, mouse proteome) it was 1000 to 10000 nM; at ABHD6 (Table 2, mouse proteome), 1000 to 10000 nM.
`O=C(ON1C(=O)CCC1=O)N1CCN(Cc2ccc(N3CCCC3)cc2OC(F)(F)F)CC1` [Example 104, 2,5-Dioxopyrrolidin-1-yl 4-{[4-(pyrrolidin-1-yl)-2-(trifluoromethoxy)phenyl]methyl}piperazine-1-carboxylate]: the IC50 on MAGL (Table 2, mouse proteome) is 100 to 1000 nM; at FAAH (Table 2, mouse proteome), > 10000 nM; on ABHD6 (Table 2, mouse proteome), 100 to 1000 nM.
On to `Cc1nc(-c2ccccc2)oc1CN1CCN(C(=O)ON2C(=O)CCC2=O)CC1` [Example 143, 2,5-Dioxopyrrolidin-1-yl 4-((4-methyl-2-phenyloxazol-5-yl)methyl)piperazine-1-carboxylate], for which the half-maximal inhibitory concentration (IC50) at MAGL (Table 2, mouse proteome) is 100 to 1000 nM; on FAAH (Table 2, mouse proteome), > 10000 nM; at ABHD6 (Table 2, mouse proteome), 1000 to 10000 nM.
Regarding `O=C(ON1C(=O)CCC1=O)N1CCN(Cc2ccc(Br)cc2N2CCCCC2)CC1` [Example 65, 2,5-Dioxopyrrolidin-1-yl 4-(4-bromo-2-(piperidin-1-yl)benzyl)piperazine-1-carboxylate], the IC50 on MAGL (Table 2, mouse proteome) is < 100 nM; on FAAH (Table 2, mouse proteome), 1000 to 10000 nM; at ABHD6 (Table 2, mouse proteome), 100 to 1000 nM.
The matching figures for `O=C(ON1C(=O)CCC1=O)N1CCN(Cc2cc(Cl)ccc2N2CCOCC2)CC1` [Example 92, 2,5-Dioxopyrrolidin-1-yl 4-{[5-chloro-2-(morpholin-4-yl)phenyl]methyl}piperazine-1-carboxylate]: 100 to 1000 nM, > 10000 nM and 1000 to 10000 nM.
In the case of `CC(=O)N1CCN(c2cc(Cl)ccc2CN2CCN(C(=O)ON3C(=O)CCC3=O)CC2)CC1` [Example 115, 2,5-Dioxopyrrolidin-1-yl 4-{[2-(4-acetylpiperazin-1-yl)-4-chlorophenyl]methyl}piperazine-1-carboxylate], the IC50 on MAGL (Table 2, mouse proteome) was 100 to 1000 nM; at FAAH (Table 2, mouse proteome), > 10000 nM; at ABHD6 (Table 2, mouse proteome), 1000 to 10000 nM.
As for `O=C(ON1C(=O)CCC1=O)N1CCN(Cc2ccc(Cl)cc2-n2cc(Cl)cn2)CC1` [Example 95, 2,5-Dioxopyrrolidin-1-yl 4-(4-chloro-2-(4-chloro-1H-pyrazol-1-yl)benzyl)piperazine-1-carboxylate], the IC50 on MAGL (Table 2, mouse proteome) is < 100 nM; at FAAH (Table 2, mouse proteome) it was > 10000 nM; on ABHD6 (Table 2, mouse proteome) it was 100 to 1000 nM.
`O=C(ON1C(=O)CCC1=O)N1CCN(Cc2cccc(N3CCCCC3)c2)CC1` [Example 133, 2,5-Dioxopyrrolidin-1-yl 4-(3-(piperidin-1-yl)benzyl)piperazine-1-carboxylate]: the concentration for half-maximal inhibition (IC50) on MAGL (Table 2, mouse proteome) is < 100 nM; on FAAH (Table 2, mouse proteome), > 10000 nM; on ABHD6 (Table 2, mouse proteome), < 100 nM.
Turning to `COc1ccc(N2CCN(C(=O)ON3C(=O)NC(C(C)C)C3=O)CC2)cc1` (stereo not drawn) [Example 55, 4-Isopropyl-2,5-dioxoimidazolidin-1-yl 4-(4-methoxyphenyl)piperazine-1-carboxylate], the IC50 on MAGL (Table 1, mouse proteome) is > 10000 nM; at FAAH (Table 1, mouse proteome) it was 1000 to 10000 nM; on ABHD6 (Table 1, mouse proteome) it was < 100 nM.
With `O=C(ON1C(=O)CCC1=O)N1CCN(Cc2ccc(Cl)cc2N2CCC3(CCOCC3)C2)CC1` [Example 109, 2,5-Dioxopyrrolidin-1-yl 4-[(4-chloro-2-{8-oxa-2-azaspiro[4.5]decan-2-yl}phenyl)methyl]piperazine-1-carboxylate], the IC50 on MAGL (Table 2, mouse proteome) was < 100 nM; on FAAH (Table 2, mouse proteome) it was > 10000 nM; at ABHD6 (Table 2, mouse proteome) it was 1000 to 10000 nM.
